Measured values reported in patent US8987209B2, “N-carboxyalkyl-auristatin and the use thereof” (Seattle Genetics, Inc., priority 2010, dated 2015).
Square brackets hold non-standard residues; d marks the D form. Peptide text beside a SMILES is read from it. * marks the point of attachment. NMeVal(N-(CH2)3COOH) = CC(C)[C@@H](C(=O)*)N(C)CCCC(=O)O; Dolaproine = CO[C@@H]([C@@H]1CCCN1)[C@@H](C)C(=O)O; Dil = CC[C@H](C)[C@H](NC)[C@@H](CC(=O)O)OC; X5 = C[C@@H](N*)[C@@H](O)c1ccccc1; NMeV = CN[C@H](C(=O)O)C(C)C

Legend:
[1] = system: human renal carcinoma cell line 786-0; assay: Anti-proliferative effect on renal cell carcinoma 786-0 cell line (MTT assay); format: cell-based; conditions: 786-0 cells, incubation 48 to 96 hours, serum free medium or 2% FCS
Experimental: B-1. Determination of Anti-proliferative Effects of Renal Cell Carcinoma 786-0 Cell Line:
A defined number of cells of the human renal carcinoma cell line 786-0 were cultured in a 96 well micro titer plate in rich medium (2500 or 7.000 cells/well) and then incubated over night at 37° C./5% CO2. After 18 hours the seed medium was replaced by a serum free medium or medium with 2% FCS. The treatment began with measuring out the respective test substances in varying concentrations (10^−5 M to 10^−14 M). Incubation times of between 48 hours and 96 hours were chosen. The proliferation was determined by means of the MTT assay (ATCC, Manassas, Va., USA, catalogue no. 30-1010K). After completion of incubation period the MTT reagent was incubated with the cells for 4 hours before lysis occurred over night by measuring out the detergent. The created stain was detected at 570 nm. The proliferation of the cells, which were treated identically to the other cells but without the test substance was defined as the 100% value. The data obtained from this test represent triple determinations and at least two experiments had been carried out independently of each other.

HT-29 wt cell line = assay: Anti-proliferative effect on HT-29 wt cell line (MTT assay); format: cell-based, human; conditions: HT-29 wt cells, incubation 48 to 96 hours, medium with 10% FCS
Experimental: B-2. Determination of Anti-proliferative Effects of HT-29 wt Cell Line:
After 18 hours the seed medium was replaced by a fresh medium with 10% FCS. The treatment started with measuring out the respective test substance. The dose-response curves were determined of the investigative substances with a concentration of 10^−5 M to 10^−14 M (1:10 dilutions). Incubation times of between 48 hours and 96 hours were chosen. The proliferation was detected by means of the MTT assay (ATCC, Manassas, Va., USA, catalogue no. 30-1010K). After completion of selected incubation period the MTT reagent was incubated with the cells for 4 hours before lysis occurred over night by measuring out the detergent. The created stain was detected at 570 nm. The proliferation of the cells, which were treated identically to the other cells but without the test substance, was defined as the 100% value. The data obtained from this test represent triple determinations and at least two experiments had been carried out independently of each other.

[2] = Cell permeability, flux assay using Caco-2 cells; format: in vitro ADME; conditions: human, basal to apical, 2 hours incubation
Experimental: (§1) B-5. Determination of Cell Permeability:
(§2) The cell permeability of a substance can be analyzed by means of in vitro tests in a flux assay using Caco-2-cells [M. D. Troutman and D. R. Thakker, Pharm. Res. 20 (8), 1210-1224 (2003)]. For this analysis the cells were cultured on 24 membrane filter plates for 15 to 16 days. In order to determine permeation the test substance in question was given either apical (A) to a HEPES buffer or basal (B) on the cells and incubated for 2 hours. The samples were withdrawn after 0 and 2 hours from the cis and trans compartments. The samples were separated by means of HPLC (Agilent 1200, Böblingen, Germany) using reverse-phase columns. The HPLC system was coupled to a triple quadropol mass spectrometer API 4000 (Applied Biosystems Applera, Darmstadt, Germany) via a turbo ion spray. The permeability was evaluated by means of the Papp value which was calculated with the help of the formula published by Schwab et al. [D. Schwab et al., J. Med. Chem. 46, 1716-1725 (2003)]. A substance was classified as active if the ratio of Papp (B-a) to Papp (A-B) was >2 or <0.5.
(§3) The permeability from B to A [Papp^(B-A)] is particularly important for toxophores which are being released intracellular: The lower the permeability the longer the residence time of the substance in the cell after intracellular release and, consequently, the more time available for interaction with the biochemical target (here: tubulin).

Caco-2-cells = assay: Cell permeability, flux assay using Caco-2 cells; format: in vitro ADME; conditions: basal to apical, 2 hours incubation
Experimental: as §1, §2, §3

With CC[C@H](C)[C@@H]([C@@H](CC(=O)N1CCC[C@H]1[C@H](OC)[C@@H](C)C(=O)N[C@@H](Cc1c[nH]c2ccccc12)C(N)=O)OC)N(C)C(=O)[C@@H](NC(=O)[C@H](C(C)C)N(C)CCCC(=O)O)C(C)C [Example 18, N-(3-carboxypropyl)-N-methyl-L-valyl-N-[(3R,4S,5S)-1-{(2S)-2-[(1R,2R)-3-{[(2S)-1-amino-3-(1H-indol-3-yl)-1-oxopropane2-yl]amino}-1-methoxy-2-methyl-3-oxopropyl]pyrrolidin-1-yl}-3-methoxy-5-methyl-1-oxoheptan-4-yl]-N-methyl-L-valinamide] ({NMeVal(N-(CH2)3COOH)}-V[Dil][Dolaproine]W-NH2) as the molecule, how does the IC50 ([1]; Homo sapiens) read?
Its IC50 is 173 nM.

And the IC50 (HT-29 wt cell line; Homo sapiens)?
The IC50 was 16 nM.

What about the Papp B→A at 2 h [2] of the same molecule?
Its Papp B→A at 2 h is 0.2 ×10⁻⁶ cm/s.

Which “Papp (B-A)” value (Caco-2-cells) does the source give for CC[C@H](C)[C@@H]([C@@H](CC(=O)N1CCC[C@H]1[C@H](OC)[C@@H](C)C(=O)N[C@H](C)[C@@H](O)c1ccccc1)OC)N(C)C(=O)[C@@H](NC(=O)[C@@H](NC)C(C)C)C(C)C [MMAE, monomethylauristatin E, reference compound] (H-[NMeV]V[Dil][Dolaproine]-X5) here?
Its value is 8.9 ×10⁻⁶ cm/s.

With CC[C@H](C)[C@@H]([C@@H](CC(=O)N1CCC[C@H]1[C@H](OC)[C@@H](C)C(=O)N[C@@H](Cc1ccccc1)C(=O)O)OC)N(C)C(=O)[C@@H](NC(=O)[C@@H](NC)C(C)C)C(C)C [MMAF, Monomethylauristatin F, reference compound] (H-[NMeV]V[Dil][Dolaproine]F-OH) as the molecule, how does the IC50 [1] read?
Its IC50 is 260 nM.

And the IC50 (HT-29 wt cell line)?
The IC50 was 10 nM.

What about the “Papp (B-A)” value (Caco-2-cells) of the same molecule?
Its value is 7.3 ×10⁻⁶ cm/s.
